Assay results taken from patent publication US12089597B2, “Active ingredient combinations with insecticidal, nematicidal and acaricidal properties” (BAYER AKTIENGESELLSCHAFT, priority 2018, dated 2024).

Legend:
Meloidogyne incognita [1] = assay: Example B: Meloidogyne incognita test (gall formation on lettuce roots in sand); type: in vivo; details: nematicidal action by gall formation, 100% = no galls
Text: (§1) • The expected activity for a given combination of two active ingredients can be calculated as follows, according to S. R. Colby (“Calculating Synergistic and Antagonistic Responses of Herbicide Combinations”, Weeds 15, 20-22, 1967): • If • X is the kill rate, expressed as % of the untreated control, when using active ingredient A at an application rate of m g/ha or in a concentration of m ppm, • Y is the kill rate, expressed as % of the untreated control, when using active ingredient B at an application rate of n g/ha or in a concentration of n ppm and • E is the kill rate, expressed as % of the untreated control, when using active ingredients A and B at application rates of m and n g/ha or in a concentration of m and n ppm, • then
(§2) [formula] • If the actual kill rate is greater than the calculated kill rate (E), the action of the combination is superadditive, i.e. a synergistic effect is present.
(§3) Meloidogyne incognita Test
(§4) • Solvent: 125.0 parts by weight of acetone
(§5) To produce an appropriate active ingredient formulation, 1 part by weight of active ingredient is mixed with the stated amount of solvent and the concentrate is diluted to the desired concentration with water.
(§6) Vessels are filled with sand, active ingredient solution, an egg/larvae suspension of the southern root-knot nematode (Meloidogyne incognita) and lettuce seeds. The lettuce seeds germinate and the plants develop. The galls develop on the roots.
(§7) After the desired period of time, the nematicidal action is determined in % by the gall formation. 100% means that no galls were found; 0% means that the number of galls on the treated plants corresponds to the untreated control. The values ascertained are entered into Colby's formula.

Meloidogyne incognita [2] = assay: Example A: Meloidogyne incognita test (gall formation on lettuce roots in sand); type: in vivo; details: nematicidal action by gall formation, 100% = no galls
Text: as §1, §2, §3, §4, §5, §6, §7

| Compound | Effect in % after 14 days (Meloidogyne incognita [1]; 1.6 ppm) [%] | Effect in % after 14 days (Meloidogyne incognita [1]; 3.2 ppm) [%] | Effect in % after 14 days (Meloidogyne incognita [1]; 6.4 ppm) [%] | Effect in % after 14 days (Meloidogyne incognita [2]; 1.2 ppm) [%] | Effect in % after 14 days (Meloidogyne incognita [2]; 2.4 ppm) [%] | Effect in % after 14 days (Meloidogyne incognita [2]; 4.8 ppm) [%] | Effect in % after 14 days (Meloidogyne incognita [1]; 0.4 ppm) [%] | Effect in % after 14 days (Meloidogyne incognita [1]; 0.8 ppm) [%] | Effect in % after 14 days (Meloidogyne incognita [2]; 3 ppm) [%] | Effect in % after 14 days (Meloidogyne incognita [2]; 6 ppm) [%] | Effect in % after 14 days (Meloidogyne incognita [2]; 12 ppm) [%] |
| --- | --- | --- | --- | --- | --- | --- | --- | --- | --- | --- | --- |
| c1ccc(-c2noc(-c3cccs3)n2)cc1 [Tioxazafen (B-2), Tioxazafen] | 0 | 0 | 70 |  |  |  |  |  |  |  |  |
| Cc1cc(Cl)cc(C)c1C1=C(O)C2(CCC3(CC2)OCCO3)NC1=O [Compound (I-2)] | 0 |  |  | 0 | 0 | 0 | 0 | 0 |  |  |  |
| O=C(Nc1ccn(-c2c(F)cccc2F)n1)c1ccccc1C(F)(F)F [Compound (B-1)] |  |  |  |  |  |  |  |  | 0 | 0 | 70 |
